Common to all, as to assay type: physicochemical
The nature of data set [1]: Lipophilicity, log D of the compound in octanol/water system at pH 7 by shake-flask assay based HPLC analysis.
Data set [2] is described as follows: Lipophilicity, log P of the compound in toluene/water system by potentiometric titration method. The note with it: buffer.
Data set [3] is described as follows: Lipophilicity, log D of the compound in octanol/water system at pH 7 by potentiometric titration method.
The nature of data set [4]: Lipophilicity, log D of the compound in toluene/water system at pH 7 by shake-flask assay based HPLC analysis. The note with it: buffer.
Data set [5] can be described thus: Lipophilicity, log D of the compound in toluene/water system at pH 7 by potentiometric titration method. The note with it: buffer.
The nature of data set [6]: Lipophilicity, log P of the compound in octanol/water system by potentiometric titration method.
Data set [7] is described as follows: Acidic ionization constant, pKa of the compound in water by potentiometric titration method.
A short description of data set [8]: Ionization constant, pKa of the compound in water in presence of 20 to 27.4% acetonitrile cosolvent by potentiometric titration method. The note with it: water with 20 to 27.4% acetonitrile cosolvent.
A short description of data set [9]: Basic ionization constant, pKa of the compound in 100% acetonitrile by UV-vis spectrophotometric titration method.
The nature of data set [10]: Lipophilicity, log D of the compound assessed as retention index in nonpolar system in presence of 80% acetonitrile cosolvent by PLRP-S based RP-HPLC analysis.
Data set [11] can be described thus: Ionization constant, pKa of the compound in water in presence of 30 to 35% acetonitrile cosolvent by potentiometric titration method. The note with it: water with 30 to 35% acetonitrile cosolvent.
A short description of data set [12]: Ionization constant, pKa of the compound in water in presence of 40 to 42.6% acetonitrile cosolvent by potentiometric titration method. The note with it: water with 40 to 42.6% acetonitrile cosolvent.
A short description of data set [13]: Basic ionization constant, pKa of the compound in water by potentiometric titration method.
Data set [14] in a line: Ionization constant, pKa of the compound in water by potentiometric titration method.
Data set [15] can be described thus: Ionization constant, pKa of the compound in water in presence of 80% acetonitrile cosolvent by PLRP-S based RP-HPLC analysis. The note with it: water with 80% acetonitrile cosolvent.
[16] abbreviates: 100% acetonitrile, read-out: pKa.

The structures appear in SMILES notation. Some results are limits rather than exact numbers.

Consider `CCCCC(=O)N(Cc1ccc(-c2ccccc2-c2nnn[nH]2)cc1)[C@H](C(=O)O)C(C)C`, for which the logD (commonly lipophilicity at a set pH, counting ionised and neutral species) was -1.32 in data set [1], under 0 in data set [3], under -2.5 in data set [4] and under 0 in [5]. For the same molecule, the logP – broadly, a log measure of how a compound divides between an organic and an aqueous phase – is 0.3 in data set [2] and 3.2 in data set [6] (read-out: logP).
For the molecule `Nc1cccc(O)c1` [3-AMINOPHENOL], the pKa is 9.82 in data set [7]; 4.13 in data set [8]; 10.4 in [9] (setting [16]); 4.07 in data set [11]; 4.01 in [12]; 4.36 in data set [13]. Besides, the logD is -0.11 in data set [1], 0.1 in [3] and -1.77 in [4]. Besides, in data set [6] (read-out: logP), the logP stood at 0.1. For the same molecule, in [10], the Retention_index is listed as -0.65.
In data set [14], `NS(=O)(=O)c1cc2c(cc1Cl)NCNS2(=O)=O` [HYDROCHLOROTHIAZIDE] came in with a pKa of 8.68.
Consider `CC(C)Cc1ccc(C(C)C(=O)O)cc1` (centres undefined) [IBUPROFEN], for which the logD in data set [1] was 1.07; in [3], 1.3; in data set [4], -0.43; in [5] it was 0.2. Moreover, the logP in data set [2] was determined as 3.1.
On to `Cc1cccc(C)c1NC(=O)C1CCCCN1C` (centres undefined) [MEPIVACAINE], for which the logD in data set [1] is 0.92; in data set [3] it was 1.1; in data set [4], 0.89; in data set [5], 0.8. Besides, the pKa amounted to 7.88 in [8]; 7.83 in data set [14]; 5.9 in data set [15]; 16.62 in data set [9]; 7.78 in data set [11]; 7.74 in [12]. Also, the results for the logP in [2] and in data set [6] were 1.4 and 3.3, respectively. In addition, the Retention_index in [10] was 0.22.
Take `CCn1cc(C(=O)O)c(=O)c2ccc(C)nc21` [NALIDIXIC ACID]: the pKa in data set [7] stood at 6.25; in data set [8], 6.63; in data set [9] (setting [16]), 6.17; in [11] it was 7.1; in data set [12], 7.56. Also, the figures for the logD in data set [1] and in data set [4] were 0.35 and -0.12, respectively. Also, in data set [10], the Retention_index is on record as -0.15.

For the origin of these results see ChEMBL document CHEMBL5252580, “Ionization and lipophilicity in nonpolar media mimicking the cell membrane interior” (Bioorg Med Chem, 2023).
